Data reported in US20260069643A1, “COMBINATIONS COMPRISING VITAMIN B2 AND LACTOBACILLUS RHAMNOSUS” (DSM IP Assets B.V., priority 2022, published 2026).

How the values were obtained:
Verrucomicrobia = assay: Long-term SHIME fermentation (colon model), 16S rRNA gene sequencing and flow cytometry: abundance of Verrucomicrobia; details: FIG. 1, mucus of the transverse colon, end of three-week treatment vs end of control period (n=3), probiotic 1*10^10 CFU/reactor, vitamin B2 10 mg/day, significance p<0.05
From the text: (§1) The typical reactor setup of the SHIME®, representing the gastrointestinal tract of the adult human, was described by Molly et al. (1993) Applied Microbiology and Biotechnology 39(2):254-258. Inoculum preparation, retention time, pH, temperature settings and reactor feed composition were previously described by Possemiers et al. (2004) FEMS Microbiol Ecol. 49(3):495-507. Compared to the typical setup of the SHIME, the long-term SHIME experiment used for this example included some adaptations. In one reactor, at first, the conditions of the stomach were simulated, before being changed by the computer to conditions simulating the small intestine. […]
(§2) Samples for quantitative 16S-targeted Illumina sequencing were collected 3×/week during the last week of the control and treatment period. […] The obtained high-resolution proportional phylogenetic information (i.e., proportional abundances (%)) was combined with an accurate quantification of total bacterial cells via flow cytometry to obtain quantitative data at phylum, family, and species level. […] Samples were analyzed on a BD Facsverse (BDBiosciences, Erembodegem, Belgium) using the high-flowrate setting and bacteria were separated from medium debris and signal noise by applying a threshold level of 200 on the SYTO channel. […]

Akkermansia muciniphila = assay: Long-term SHIME fermentation (colon model), 16S rRNA gene sequencing and flow cytometry: abundance of Akkermansia muciniphila; details: FIG. 3, mucus of the transverse colon, end of three-week treatment vs end of control period (n=3), probiotic 1*10^10 CFU/reactor, vitamin B2 10 mg/day, significance p<0.05
From the text: as §1, §2

Akkermansiaceae = assay: Long-term SHIME fermentation (colon model), 16S rRNA gene sequencing and flow cytometry: abundance of Akkermansiaceae; details: FIG. 2, mucus of the transverse colon, end of three-week treatment vs end of control period (n=3), probiotic 1*10^10 CFU/reactor, vitamin B2 10 mg/day, significance p<0.05
From the text: as §1, §2

Lactobacillus rhamnosus GG
did not significantly change: abundance of Verrucomicrobia compared to the control (Verrucomicrobia) | abundance of Akkermansia muciniphila compared to the control (Akkermansia muciniphila) | abundance of Akkermansiaceae compared to the control (Akkermansiaceae)
